Data on one molecule can be found in PMC12388523, “Flavonoids and Sesquiterpene Lactones from Lychnophora ericoides (Arnica-Do-Cerrado) and Their In Vitro Effects on Multiple Myeloma and Acute Myeloid Leukemia” (Metabolites, 2025).

The structures appear in SMILES notation. Bounds are passed on as bounds.

The subject of one experiment is MOLM-13. Further details: method as in PMID 29350920. The conditions noted are these: cited from earlier work.
In another experiment the test system is CEM. Also noted: method as in PMID 15577239. The conditions noted are these: cited from earlier work.
For a further experiment, the system named is BC cell line. Further details: method as in PMID 17089326. The conditions noted are these: cited from earlier work.
The test system of a further experiment is HL-60 cells. Briefly: Metabolic activity, resazurin staining, HL-60. The experiment is classed as cell-based. The protocol: (§1) Acute myeloid leukemia cell line HL-60 and multiple myeloma cell lines AMO-1 and KMS-12-PE were obtained from the German Collection of Microorganisms and Cell Cultures (DSMZ), Braunschweig, Germany, and non-tumorigenic stromal cell line HS-5 was acquired from the American Type Culture Collection (ATCC, Manassas, VA, USA). All cell lines were cultured in RPMI 1640 medium without phenol red (Pan Biotech, Aidenbach, Germany), supplemented with 2 mM glutamine, 100 U/mL penicillin, 100 µg/mL streptomycin (Sigma-Aldrich, St. Louis, MO, USA), and 10% fetal bovine serum (FBS Maximus, Catus Biotech GmbH, Tutzing, Germany) at 37 °C in a humidified atmosphere of 5% CO2/95% air. Cells were fed twice weekly. Logarithmically growing cells were resuspended at 1 × 10^5 cells/mL, plated in triplicate in round-bottom 96-well plates (100 µL per well; Falcon, Becton Dickinson, Franklin Lakes, NJ, USA), and incubated at 37 °C in 5% CO2/95% air for 2 h. Subsequently, the compounds were adjusted in the cell culture medium to reach the final concentrations in a total volume of 150 µL and incubated for an additional 72 h. Cell proliferation was assessed by [^3H]-thymidine uptake. Each well was exposed to 2 µCi [^3H]-thymidine (Hartmann Analytic, Braunschweig, Germany) during the final 12–16 h of incubation. Cells were harvested using a semi-automated device, and [^3H]-thymidine incorporation (expressed in counts per minute, cpm) was measured with a scintillation counter (MicroBeta TriLux, PerkinElmer, Waltham, MA, USA). Metabolic activity was assessed by resazurin staining. Resazurin (Carl Roth, Karlsruhe, Germany) was dissolved in distilled water at a concentration of 0.1 mg/mL, and 15 µL of this solution was added to each well, followed by a 2 h incubation at 37 °C. Relative fluorescence units (RFUs) were measured using a Synergy H1 plate reader equipped with a 560 nm excitation/590 nm emission filter set (BioTek; Agilent, Santa Clara, CA, USA). Proliferation and metabolic activity in the absence of compounds were defined as 100% (control), and the values for compound-treated samples were expressed as percentages relative to the control. Selectivity indices were calculated by dividing the IC50 value of each compound against HS-5 cells through the IC50 values against the investigated cell lines.
(§2) The Wilcoxon Rank Sum Test was used to analyze proliferation and metabolic activity in the absence and presence of varying compound concentrations (NCSS 2007 software, version 07.1.2, Kaysville, UT, USA). A p-value < 0.05 was considered statistically significant. IC50 values were calculated using GraphPad Prism 10.1.2. This software reports 95% confidence intervals instead of standard errors. […] Nonetheless, the figures clearly illustrate the IC50 values due to the narrow concentration range tested.
(§3) Proliferation inhibition often leads to cell death. Therefore, the cytotoxic activity of the compounds was further evaluated using a modified 3-(4,5-dimethylthiazol-2-yl)-2,5-diphenyltetrazolium bromide (MTT) assay, the resazurin (Alamar Blue) assay. Metabolically active cells reduce the non-fluorescent dye resazurin to the fluorescent dye resorufin via mitochondrial reductase activity, which correlates with cell viability. In the first step the metabolic activity of the four isolated flavonoids was investigated, showing a dose-dependent reduction, but to a much lower extent than in the proliferation assays (Table A2). In fact, only 7,3′,4′-trimethoxymyricetin (2) inhibited the metabolic activity of all four cell lines by more than 50% at a concentration of 100 µM.
On the technique in general: The colour change of resazurin is a common sign of viable cells or microbes.

The next experiment concerns KB cell line. Further details: method as in PMID 17089326. The conditions noted are these: cited from earlier work.
In the next experiment the test system is MOLM-13 cells. Briefly: Metabolic activity, resazurin staining, MOLM-13. It is filed as cell-based. On the procedure:
[The source words this procedure for another cell line and reports this cell line under the same test.] as §1, §2, §3

The next experiment concerns AMO-1 cells. Briefly: Proliferation, [3H]-thymidine uptake, AMO-1. The experiment is classed as cell-based. The protocol: as §1, §2
The test system of experiment [1] is human colon cancer cell line HT-29. Further details: method as in PMID 22685350. The conditions noted are these: cited from earlier work.

In the case of `C=C(C)C(=O)O[C@H]1C[C@@]2(C)OC(=CC2=O)/C(CO)=C\[C@H]2OC(=O)C(=C)[C@H]12` [Compound 5, goyazensolide], the IC50 was 860 nM in the experiment with MOLM-13; 170 nM in the experiment with CEM; less than 300 nM with BC cell line; 1700 nM in the experiment with HL-60 cells (Homo sapiens, HL-60, 72 h, resazurin, 95% confidence interval in brackets, read-out: IC50 inhibition of metabolic activity); less than 300 nM in the experiment with KB cell line; 1000 nM with MOLM-13 cells (Homo sapiens, MOLM-13, 72 h, resazurin, 95% confidence interval in brackets, read-out: IC50 inhibition of metabolic activity). In addition, the IC50 was 1600 nM with AMO-1 cells (Homo sapiens, AMO1, 72 h, AMO-1, 72 h, 95% confidence interval in brackets, read-out: IC50 inhibition of proliferation) and 560 nM in experiment [1]. In addition, the entries for the “Selectivity index (metabolic activity)” value in the experiment with HL-60 cells (IC50 HS-5 / IC50 HL-60) and in the experiment with MOLM-13 cells (IC50 HS-5 / IC50 MOLM-13) were 1.5 and 2.6, respectively. For the same molecule, in the experiment on AMO-1 cells (IC50 HS-5 / IC50 AMO-1), the “Selectivity index (proliferation)” value was determined as 1.2.
